Measurements taken from patent US20200297015A1, “TRYPTOPHAN DERIVATIVES AS SWEETENERS” (CHROMOCELL CORPORATION, priority 2017, published 2020).

Assays:
sweet taste = details: Optimising Sweet Taste in Foods, 2006; cited from earlier work
[1] = tested on: sweetness intensity in humans; test: Discriminative sensory evaluation of sweetness intensity, two-alternative forced choice sip and spit (2AFC) in water; assay type: in vivo, human
Protocol: The test compounds were evaluated for sweetness intensity in a aqueous solution in humans using a two-alternative forced choice “sip and spit” method (2AFC).
Preparation of Samples for Sensory Taste Tests: • Control Sample: Sucrose (various levels) • Variant Sample: Compound 1, 5 and 8
The control samples for the discrimination taste test were prepared by dissolving the sucrose directly in water at the indicated test concentrations Variant sample containing Compound 1 was prepared by dissolving Compound i directly in water at the desired concentration. Variant sample containing Compound 5 and 8 were prepared by dissolving the respective sodium salts of the compounds directly in water (refer to Example 4).
The 2AFC test used for compound evaluation was a double blinded and randomized test where taste panelists (n≥12) evaluate a pair of sweetened solutions at a time—one sample is sweetened with sucrose (i.e. control) while the other sample is sweetened with the test compound (i.e. variant). Panelists were instructed not to eat or drink (except water) for at least 1 h before the test. During the test, panelists were instructed to sip each sample, swirl it around their mouth and then expectorate. After tasting each sample in the pair, panelists were instructed to record the sample that is “sweeter” in taste. Panelists cleansed their palates by rinsing with water, eating a cracker and waiting for an interval of about 5 minutes. All samples were tasted at ambient temperatures. Data were analyzed using binomial probabilities.

[2] = tested on: sweetness intensity (expert tasters); test: Sweetness potency comparison vs D-Tryptophan, paired comparison by expert tasters; assay type: in vivo, human; details: in water, n>5
Protocol: The sweetness potency of the test compound was compared D-Tryptophan to understand potency differences between the test compound and non-methylated variants of D-tryptophan.
(§1) Preparation of Samples for Taste Tests: • Control Sample: 250 ppm, 500 ppm and 1000 ppm of D-Tryptophan • Variant Sample: 250 ppm, 500 ppm and 1000 ppm of Compound 5 Samples for the taste test were prepared by dissolving, both the control and variant samples, directly in water at the desired test concentrations.
Expert tasters (n>5) tasted the control and test samples in a blinded experiment and assessed sweetness intensity (at the same concentration) via paired comparison. Each taster evaluated a pair of sweetened solutions at a time—one sample is sweetened with Control compound (i.e. control) while the other sample is sweetened with the test compound (i.e. variant). After tasting each sample in the pair, tasters were instructed to record the sample that is “sweeter” in taste. All samples were tasted at ambient temperatures.

[3] = Solubility: concentrated stock by conversion to sodium salt form; assay type: physicochemical; details: for concentrated stock compared to the free base form: sodium salt form vs free base form; for concentrated solution prepared: sodium salt form, with 5.5% by weight sodium hydroxide in de-ionized water, vortex and sonication 30-120 s
From the text: Compounds 5 and 8 have been prepared at an increased concentration for commercial applications by converting them into their respective sodium salt forms. The process of converting to a salt form was obtained by dissolving the Compounds in water and adding a set quantity of sodium hydroxide or potassium hydroxide solution. A concentrated solution of 30% by weight of Compound 5 and 8 has been prepared by this method. This has been achieved by combining 30%, by weight, of Compound 5 or Compound 8 with 5.5%, by weight, of sodium hydroxide in de-ionized water. The mixture is subjected to intermittent vortex and sonication for a duration of 30-120 s. This process achieves a 300 times concentrated stock compared to the free base form of Compound 5 and 8, thereby enabling delivery of an increased concentration of the compounds in a model beverage/matrix. The sodium/potassium salt can increase solubility by changing neutral zwitterion to more hydrophilic negative charged anion.

[4] = tested on: perception of sweet taste in humans; test: Descriptive Analysis (DA) sensory evaluation by trained panel, aqueous matrix; assay type: in vivo, human; details: for Bitter @ 18 sec / Bitter @ 1 min / Bitter @ 1 min 30 s / Bitter @2 min / Bitter @3 min / Sweet @ 18 sec / Sweet @ 1 min / Sweet @ 1 min 30 s / Sweet @ 2 min: intensity on 15 cm scale; for Bitter @ 18 sec / Bitter @ 1 min / Bitter @ 1 min 30 s / Bitter @2 min / Bitter @3 min / Sweet @ 18 sec / Sweet @ 1 min / Sweet @ 1 min 30 s / Sweet @ 2 min / Sweet AT: in water, 500 ppm Rebaudioside M (control), 1500 ppm Compound 5 (variant), n≥12; for Sweet AT: sweet appearance time
Protocol: The effect of the test compound on the perception of sweet taste in an aqueous matrix was evaluated using a descriptive analysis methodology with a group of trained panelists, as follows.
Preparation of Samples for Sensory Taste Tests: • Control Sample: 500 ppm Rebaudioside M • Variant Sample: 1500 ppm Compound 5 Samples for the descriptive analysis taste test were prepared by dissolving, both the control and variant samples, directly in water at the desired test concentrations.
The taste test panelists used in Example I were selected using a sensory acuity screening program and then trained in descriptive analysis taste testing. Candidate panelists were recruited, with prescreening and personal interviews, and were assessed for their ability to detect, recognize and differentiate basic taste attributes or mixtures thereof as part of a standardized acuity test. These candidate panelists were also assessed for their innate ability to identify flavors, and to rank on intensity scales. Other senses such as smell and vision were also included as part of the assessment. Candidates also were screened for their ability to use the language to describe and articulate ideas.
The method was performed as a double blinded, randomized test, where trained Descriptive Analysis taste panelists (n≥12) profiled the maximum intensity perceived at 18 seconds, of the control sample and the variant sample for the following 3 attributes; sweet, bitter and sweet appearance time. In addition to the maximum intensity, the panelists continued to assess sweet and bitter intensity (at 1 min, 1.5 min, 2 min, and 3 min), to generate a discontinuous time scale Intensity profile (TSI) of sweet and bitter percepts to gain an understanding of the taste profile of the control and variant samples. Each panelist scored sweetness intensity on a 15 cm scale, with the control and variant sample being determined to be iso-sweet by ANOVA at 18 seconds.

[5] = tested on: sweetness intensity (expert tasters); test: Reference scaling of sweetness intensity against sucrose references by expert tasters; assay type: in vivo, human; details: for Sweetness Intensity (avg): @ 1000 ppm, ranked against sucrose references (5%, 7.5%, 10%), n>5
Protocol: as §1
In another test, expert tasters (n>5) also tasted Compound 5 and Control Samples to a set of sucrose references (5%, 7.5%, 10%) and ranked the Test and Control samples for sweetness intensity compared to sucrose references. At the same concentration, Compound 5 achieves higher (close to 2 fold) potency compared to Control compound.

Q: For N[C@H](Cc1c[nH]c2cc(Cl)ccc12)C(=O)O [6-chloro-D-tryptophan], which sweeter than sucrose (sweet taste) is on record?
A: 1000 times

Q: With Cc1cccc2[nH]cc(CC(N)C(=O)O)c12 (centres unmarked) [Compound 1, 2-amino-3-(4-methyl-1H-indol-3-yl)propanoic acid] as the compound, how does the “Number picking Variant” value ([1]; Compound 1 @ 1000 ppm vs 10% Sucrose, in water, Total Number 38) read?
A: 25

Q: With Cc1ccc2[nH]cc(C[C@@H](N)C(=O)O)c2c1 [Compound 5, (R)-2-amino-3-(5-methyl-1H-indol-3-yl)propanoic acid] as the compound, how does the “Number picking Variant” value ([1]; Compound 5 @ 2000 ppm (sodium salt dissolved in water) vs 12% Sucrose, Total Number 38) read?
A: 26

Q: What about the “% picking Test as “sweeter”” value ([2]; Compound 5 @ 250 ppm vs Control (D-Tryptophan) @ 250 ppm) of the same compound?
A: 100%

Q: And the “% picking Test as “sweeter”” value ([2]; Compound 5 @ 500 ppm vs Control (D-Tryptophan) @ 500 ppm)?
A: 100%

Q: And the “% picking Test as “sweeter”” value ([2]; Compound 5 @ 1000 ppm vs Control (D-Tryptophan) @ 1000 ppm)?
A: 100%

Q: And the “concentrated stock compared to the free base form” value [3]?
A: 300 times

Q: What about the concentrated solution prepared [3] of the same compound?
A: 30 % by weight

Q: And the “lingering effects, sweet and bitter, as compared to the Rebaudioside M sample” value ([4]; by ANOVA, at multiple time points, 1500 ppm Compound 5 vs 500 ppm Rebaudioside M)?
A: significantly less

Q: And the “Bitter @ 18 sec” value [4]?
A: 2.2

Q: And the “Bitter @ 1 min” value [4]?
A: 1.2

Q: And the “Bitter @ 1 min 30 s” value [4]?
A: 0.5

Q: What about the “Bitter @2 min” value [4] of the same compound?
A: 0.1

Q: What about the “Bitter @3 min” value [4] of the same compound?
A: 0.1

Q: What about the “Sweet @ 18 sec” value [4] of the same compound?
A: 10.8

Q: What about the “Sweet @ 1 min” value [4] of the same compound?
A: 6.5

Q: And the “Sweet @ 1 min 30 s” value [4]?
A: 4.6

Q: And the “Sweet @ 2 min” value [4]?
A: 3

Q: What about the “Sweet AT” value [4] of the same compound?
A: 4.8

Q: And the “Sweetness Intensity (avg)” value [5]?
A: 9.25% Sucrose equivalent

Q: What about the “potency compared to Control compound” value ([5]; at the same concentration, Control = D-Tryptophan) of the same compound?
A: ~2 fold

Q: For Cc1[nH]c2ccccc2c1C[C@@H](N)C(=O)O [Compound 8, (R)-2-amino-3-(2-methyl-1H-indol-3-yl)propanoic acid], which “Number picking Variant” value ([1]; Compound 8 @ 3000 ppm (sodium salt dissolved in water) vs 8% Sucrose, Total Number 20) is on record?
A: 11

Q: What about the “concentrated stock compared to the free base form” value [3] of the same compound?
A: 300 times

Q: And the concentrated solution prepared [3]?
A: 30 % by weight

Q: Which “Sweetness Intensity (avg)” value [5] does the source give for N[C@H](Cc1c[nH]c2ccccc12)C(=O)O [Control, D-Tryptophan, reference compound] here?
A: 5.83% Sucrose equivalent

Q: Which “Bitter @ 18 sec” value [4] does the source give for C=C1C[C@@]23CC[C@H]4[C@@](C)(CCC[C@@]4(C)C(=O)O[C@@H]4O[C@H](CO)[C@@H](O)[C@H](O[C@@H]5O[C@H](CO)[C@@H](O)[C@H](O)[C@H]5O)[C@H]4O[C@@H]4O[C@H](CO)[C@@H](O)[C@H](O)[C@H]4O)[C@@H]2CC[C@]1(O[C@@H]1O[C@H](CO)[C@@H](O)[C@H](O[C@@H]2O[C@H](CO)[C@@H](O)[C@H](O)[C@H]2O)[C@H]1O[C@@H]1O[C@H](CO)[C@@H](O)[C@H](O)[C@H]1O)C3 [Rebaudioside M, reference compound] here?
A: 3.3

Q: And the “Bitter @ 1 min” value [4]?
A: 2.2

Q: And the “Bitter @ 1 min 30 s” value [4]?
A: 1.4

Q: And the “Bitter @2 min” value [4]?
A: 0.7

Q: What about the “Bitter @3 min” value [4] of the same compound?
A: 0.3

Q: What about the “Sweet @ 18 sec” value [4] of the same compound?
A: 10.7

Q: What about the “Sweet @ 1 min” value [4] of the same compound?
A: 7.2

Q: What about the “Sweet @ 1 min 30 s” value [4] of the same compound?
A: 5.3

Q: And the “Sweet @ 2 min” value [4]?
A: 3.6

Q: And the “Sweet AT” value [4]?
A: 5.9
